For 18 compounds, IC50 results are on record in patent US10526327B2, “Histone demethylase inhibitors” (CELGENE QUANTICEL RESEARCH, INC., priority 2013, dated 2020).

The IC50 is the midpoint of a concentration-inhibition curve.

Test [1] deals with KDM5A/B. Kind of test: In vitro cell-based assay: immuno-blot quantification of tri-methyl H3K4 in ZR-75-1 breast cancer cells. The following applies: 72 hours, tri-methyl H3K4 level relative to GAPDH, percent of DMSO, read-out: Cellular IC50. From the text: An assay to measure the degree of cellular inhibition of KDM5A and 5B was developed. This quantitative immuno-blotting assay measures the amount tri-methylated histone H3 at amino acid Lysine number 4, a specific substrate […] of the direct enzymatic activity of the histone demethylases KDM5A and KDM5B from extracts of the ZR-75-1 breast cancer cell line.
This assay is a fluorometric immunoassay for the quantification of tri-methyl H3K4 extracted from cells treated with test compound and is used as a measure of the cellular inhibition of KDM5A/B.
ZR-75-1 (PTEN null, ER+) breast cancer cells numbering 50,000 (ATCC) were seeded into each well of a 96-well tissue culture treated plate and then exposed to an 11 point dilution of test compound with final concentration ranges of test compound ranging from 1250 μM to 10 nM. Cells were left in the presence of test compound for 72 hours. Extracts were prepared containing all of the cellular histone material using detergent based lysis and sonication methods. These lysates were subsequently normalized for total protein content using a colorimetric bicinchonic acid assay (MicroBCA Pierce/Thermo Scientific). Normalized cell extracts were then subjected to typical immuno-blotting procedures using NuPage reagents (Life Technologies). Electrophoretically separated histones were then transferred and immobilized using polyvinylidene difluoride membrane (Immobilon-FL Millipore). The amount of tri-methylated lysine 4 of histone H3 was detected using an antibody specific to the tri-methylated state (Cell Signaling Technologies) and quantified on an infrared imager using a densitometry software package (Odyssey CLx, Image Studio, Li-Cor). This background subtracted densitometry value was reported as a ration of the GAPDH amount for that sample and then calculated as a percent of the DMSO treated sample. The software package XL-fit (IDBS) was then used to calculate a relative IC50 value for the dilution series of a given test compound according to the equation: fit=(D+((Vmax*(x^n))/((x^n)+(Km^n)))).

The target in test [2] is T1, JMJD2C (Homo sapiens, UniProt Q9H3R0).
T1 construct: purchased BPS Bioscience 50105
T1 sequence (Q9H3R0 2-372): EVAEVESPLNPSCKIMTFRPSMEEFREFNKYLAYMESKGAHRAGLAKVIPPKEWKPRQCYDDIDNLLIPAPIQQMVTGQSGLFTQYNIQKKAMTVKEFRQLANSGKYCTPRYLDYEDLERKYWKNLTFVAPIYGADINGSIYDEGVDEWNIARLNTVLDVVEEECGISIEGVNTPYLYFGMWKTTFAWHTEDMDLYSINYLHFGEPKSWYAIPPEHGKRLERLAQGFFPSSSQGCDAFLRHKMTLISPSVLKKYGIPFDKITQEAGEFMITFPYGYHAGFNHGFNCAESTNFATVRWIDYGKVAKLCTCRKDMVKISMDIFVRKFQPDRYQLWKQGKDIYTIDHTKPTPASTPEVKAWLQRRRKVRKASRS
Kind of test: JMJD2C in vitro enzyme inhibition assay (TR-FRET). The class given is biochemical. An excerpt:
This assay determines the ability of a test compound to inhibit Jarid1A, Jarid1B, and JMJD2C demethylase activity. Baculovirus expressed Jarid1A (GenBank Accession #NM_001042603, AA1-1090) was purchased from BPS Bioscience (Cat#50110). Baculovirus expressed Jarid1B (GenBank Accession #NM_006618, AA 2-751) was purchased from BPS Bioscience (Cat #50121) or custom made by MolecularThroughput. Baculovirus expressed JMJD2C (GenBank Accession #BC143571, AA 2-372) was purchased from BPS Bioscience (Cat#50105).
The ability of test compounds to inhibit the activity of JMJD2C was determined in 384-well plate format under the following reaction conditions: 0.3 nM JMJD2C, 300 nM H3K9me3-biotin labeled peptide (Anaspec cat #64360), 2 μM alpha-ketoglutaric acid in assay buffer of 50 mM HEPES, pH7.3, 0.005% Brij35, 0.5 mM TCEP, 0.2 mg/ml BSA, 50 μM sodium L-ascorbate, and 2 μM ammonium iron(II) sulfate. Reaction product was determined quantitatively by TR-FRET after the addition of detection reagent Phycolink Streptavidin-allophycocyanin (Prozyme) and Europium-anti-di-methylated histone H3 lysine 9 (H3K9me2) antibody (PerkinElmer) in the presence of 5 mM EDTA in LANCE detection buffer (PerkinElmer) at a final concentration of 50 nM and 1 nM, respectively.
The assay reaction was initiated by the following: 2 μl of the mixture of 900 nM H3K9me3-biotin labeled peptide and 6 μM alpha-ketoglutaric acid with 2 μl of 11-point serial diluted inhibitor in 3% DMSO were added to each well of the plate, followed by the addition of 2 μl of 0.9 nM JMJD2C to initiate the reaction. The reaction mixture was incubated at room temperature for 30 minutes, and terminated by the addition of 6 μl of 5 mM EDTA in LANCE detection buffer containing 100 nM Phycolink Streptavidin-allophycocyanin and 2 nM Europium-anti-H3K9me2 antibody. Plates were read by EnVisionMultilabel Reader in TR-FRET mode (excitation at 320 nm, emission at 615 nm and 665 nm) after 1 hour incubation at room temperature. A ratio was calculated (665/615) for each well and fitted to determine inhibition constant (IC50).
Background: In TR-FRET formats the signal depends on donor and acceptor labels being close together.

A value given as a limit tells only on which side of the number the result lay.

With `COc1ccc(Oc2nc(O)c3ccncc3n2)cc1` [Example 48, 2-(4-methoxyphenoxy)pyrido[3,4-d]pyrimidin-4-ol], the IC50 in test [1] is more than 10000 nM; in test [2], not above 100 nM.

Take `COc1cccc(Oc2nc(O)c3ccncc3n2)c1` [Example 44, 2-(3-methoxyphenoxy)pyrido[3,4-d]pyrimidin-4-ol]: the values for the IC50 in test [1] and in test [2] were more than 10000 nM and 100 to 1000 nM, respectively.

Consider `Cn1cnc(-c2nccc3c(O)nc(OCCO)nc23)c1` [Example 75, 2-(2-hydroxyethoxy)-8-(1-methylimidazol-4-yl)pyrido[3,4-d]pyrimidin-4-ol], for which the IC50 in test [1] is more than 10000 nM; in test [2], 100 to 1000 nM.

Take `CCc1cccc(Oc2nc(O)c3ccncc3n2)c1` [Example 57, 2-(3-ethylphenoxy)pyrido[3,4-d]pyrimidin-4-ol]: the values for the IC50 in test [1] and in test [2] were more than 10000 nM and not above 100 nM, respectively.

For `Oc1nc(Oc2ccc(F)cc2)nc2cnccc12` [Example 47, 2-(4-fluorophenoxy)pyrido[3,4-d]pyrimidin-4-ol], the IC50 is more than 10000 nM in test [1] and 100 to 1000 nM in test [2].

Consider `Cn1cnc(-c2nccc3c(O)nc(OCC4CC4)nc23)c1` [Example 72, 2-(cyclopropylmethoxy)-8-(1-methylimidazol-4-yl)pyrido[3,4-d]pyrimidin-4-ol], for which the IC50 in test [1] lay in the range of 1000 to 10000 nM; in test [2] it was 100 to 1000 nM.

Turning to `CC(=O)Nc1ccc(Oc2nc(O)c3ccncc3n2)cc1` [Example 35, N-[4-(4-hydroxypyrido[3,4-d]pyrimidin-2-yl)oxyphenyl]acetamide], the IC50 in test [1] was 1000 to 10000 nM; in test [2], 100 to 1000 nM.

For the compound `CCOc1c(F)cc(Oc2nc(O)c3ccncc3n2)cc1F` [Example 45, 2-(4-ethoxy-3,5-difluorophenoxy)pyrido[3,4-d]pyrimidin-4-ol], the IC50 in test [1] was more than 10000 nM; in test [2], 100 to 1000 nM.

For the compound `CCCOc1nc(O)c2ccncc2n1` [Example 7, 2-propoxy-3H-pyrido[3,4-d]pyrimidin-4-one], the IC50 is more than 10000 nM in test [1] and 100 to 1000 nM in test [2].

With `Oc1nc(OCC(F)(F)F)nc2cnccc12` [Example 12, 2-(2,2,2-trifluoroethoxy)pyrido[3,4-d]pyrimidin-4-ol], the IC50 is more than 10000 nM in test [1] and 100 to 1000 nM in test [2].

As to `Oc1nc(OCC2CCC2)nc2cnccc12` [Example 11, 2-(cyclobutylmethoxy)-3H-pyrido[3,4-d]pyrimidin-4-one], the IC50 in test [1] is more than 10000 nM; in test [2] it was 100 to 1000 nM.

In the case of `CN(C)c1cccc(Oc2nc(O)c3ccncc3n2)c1` [Example 50, 2-[3-(dimethylamino)phenoxy]pyrido[3,4-d]pyrimidin-4-ol], the IC50 in test [1] is more than 10000 nM; in test [2], 100 to 1000 nM.

Turning to `Oc1nc(OCc2ccccc2)nc2cnccc12` [Example 4, 2-phenylmethoxypyrido[3,4-d]pyrimidin-4-ol], the IC50 in test [1] lay in the range of 1000 to 10000 nM; in test [2] it was 100 to 1000 nM.

With `Oc1nc(Oc2cnn(Cc3ccccc3F)c2)nc2cnccc12` [Example 87, 2-[1-(2-fluorobenzyl)pyrazol-4-yl]oxypyrido[3,4-d]pyrimidin-4-ol], the IC50 is 100 to 1000 nM in test [1] and not above 100 nM in test [2].

On to `CC(C)CCn1cc(Oc2nc(O)c3ccncc3n2)cn1` [Example 55, 2-{[1-(3-methylbutyl)pyrazol-4-yl]oxy}pyrido[3,4-d]pyrimidin-4-ol], for which the figures for the IC50 in test [1] and in test [2] were 1000 to 10000 nM and not above 100 nM, respectively.

Turning to `Oc1nc(OCCOc2ccccc2)nc2cnccc12` [Example 10, 2-(2-phenoxyethoxy)-3H-pyrido[3,4-d]pyrimidin-4-one], the IC50 in test [1] is more than 10000 nM; in test [2] it was 100 to 1000 nM.

For the compound `Oc1nc(Oc2cnn(C3CCCC3)c2)nc2cnccc12` [Example 56, 2-[(1-cyclopentylpyrazol-4-yl)oxy]pyrido[3,4-d]pyrimidin-4-ol], the values for the IC50 in test [1] and in test [2] were 1000 to 10000 nM and not above 100 nM, respectively.

Take `Oc1nc(Oc2cnn(Cc3ccccc3)c2)nc2cnccc12` [Example 66, 2-[(1-benzyl-1H-pyrazol-4-yl)oxy]pyrido[3,4-d]pyrimidin-4-ol]: the IC50 was 1000 to 10000 nM in test [1] and not above 100 nM in test [2].
